Laboratory results: ChEMBL document CHEMBL4507324 (2021)

Assays:
[1] = target: T1, Mitogen-activated protein kinase 11 (Homo sapiens, UniProt Q15759); assay: NanoBRET (SGC-Frankfurt) (MAPK11)
[2] = target: Mitogen-activated protein kinase 14 (Homo sapiens) (UniProt Q16539); conditions: Compound concentration 100.0 nM
[3] = target: T1, Mitogen-activated protein kinase 11; conditions: Compound concentration 100.0 nM
[4] = target: Ribosomal protein S6 kinase alpha-5 (Homo sapiens) (UniProt O75582); conditions: Compound concentration 100.0 nM
[5] = target: Serine/threonine-protein kinase Chk2 (Homo sapiens, UniProt O96017); assay: NanoBRET (SGC-Frankfurt) (CHEK2)
[6] = target: 5-hydroxytryptamine receptor 2A (Homo sapiens) (UniProt P28223); conditions: Compound concentration 10.0 uM
[7] = target: 5-hydroxytryptamine receptor 2B (Homo sapiens) (UniProt P41595); conditions: Compound concentration 10.0 uM
[8] = target: 5-hydroxytryptamine receptor 5A (Homo sapiens) (UniProt P47898); conditions: Compound concentration 10.0 uM
[9] = target: D(1A) dopamine receptor (Homo sapiens) (UniProt P21728); conditions: Compound concentration 10.0 uM
[10] = target: D(2) dopamine receptor (Homo sapiens) (UniProt P14416); conditions: Compound concentration 10.0 uM
[11] = target: D(3) dopamine receptor (Homo sapiens) (UniProt P35462); conditions: Compound concentration 10.0 uM
[12] = target: D(4) dopamine receptor (Homo sapiens) (UniProt P21917); conditions: Compound concentration 10.0 uM
[13] = target: D(1B) dopamine receptor (Homo sapiens) (UniProt P21918); conditions: Compound concentration 10.0 uM
[14] = target: Sodium-dependent noradrenaline transporter (Homo sapiens) (UniProt P23975); conditions: Compound concentration 10.0 uM
[15] = target: Histamine H3 receptor (Homo sapiens) (UniProt Q9Y5N1); conditions: Compound concentration 10.0 uM
[16] = target: Sigma intracellular receptor 2 (Homo sapiens) (UniProt Q5BJF2); conditions: Compound concentration 10.0 uM
Chain of Sigma intracellular receptor 2 (Homo sapiens) (Q5BJF2 whole entry): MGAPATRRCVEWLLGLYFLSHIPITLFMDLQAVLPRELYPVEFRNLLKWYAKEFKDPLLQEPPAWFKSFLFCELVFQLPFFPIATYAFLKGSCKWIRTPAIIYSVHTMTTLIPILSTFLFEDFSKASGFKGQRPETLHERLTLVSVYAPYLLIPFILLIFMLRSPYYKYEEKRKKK

T1 sequence (Q15759 whole entry): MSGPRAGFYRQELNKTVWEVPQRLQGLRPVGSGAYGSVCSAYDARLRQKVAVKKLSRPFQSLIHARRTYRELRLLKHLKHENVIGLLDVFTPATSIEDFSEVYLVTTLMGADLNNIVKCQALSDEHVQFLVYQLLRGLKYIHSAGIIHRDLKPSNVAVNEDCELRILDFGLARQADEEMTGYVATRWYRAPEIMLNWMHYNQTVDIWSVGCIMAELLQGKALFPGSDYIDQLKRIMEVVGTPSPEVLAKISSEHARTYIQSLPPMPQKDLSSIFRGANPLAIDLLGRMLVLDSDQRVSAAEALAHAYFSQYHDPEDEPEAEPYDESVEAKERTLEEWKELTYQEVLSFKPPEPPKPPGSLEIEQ
Chain of D(4) dopamine receptor (Homo sapiens) (P21917 whole entry): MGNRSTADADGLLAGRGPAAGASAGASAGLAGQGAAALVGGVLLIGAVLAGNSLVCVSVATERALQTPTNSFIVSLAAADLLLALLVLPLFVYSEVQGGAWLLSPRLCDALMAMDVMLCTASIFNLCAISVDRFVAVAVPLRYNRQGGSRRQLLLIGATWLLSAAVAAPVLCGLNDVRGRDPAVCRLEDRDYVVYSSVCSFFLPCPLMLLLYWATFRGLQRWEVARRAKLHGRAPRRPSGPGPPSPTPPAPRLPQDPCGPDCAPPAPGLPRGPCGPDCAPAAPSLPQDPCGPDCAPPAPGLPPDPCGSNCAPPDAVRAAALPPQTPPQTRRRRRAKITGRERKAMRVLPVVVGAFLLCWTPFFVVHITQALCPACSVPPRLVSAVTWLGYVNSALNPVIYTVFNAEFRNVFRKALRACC
Chain of 5-hydroxytryptamine receptor 2A (Homo sapiens) (P28223 whole entry): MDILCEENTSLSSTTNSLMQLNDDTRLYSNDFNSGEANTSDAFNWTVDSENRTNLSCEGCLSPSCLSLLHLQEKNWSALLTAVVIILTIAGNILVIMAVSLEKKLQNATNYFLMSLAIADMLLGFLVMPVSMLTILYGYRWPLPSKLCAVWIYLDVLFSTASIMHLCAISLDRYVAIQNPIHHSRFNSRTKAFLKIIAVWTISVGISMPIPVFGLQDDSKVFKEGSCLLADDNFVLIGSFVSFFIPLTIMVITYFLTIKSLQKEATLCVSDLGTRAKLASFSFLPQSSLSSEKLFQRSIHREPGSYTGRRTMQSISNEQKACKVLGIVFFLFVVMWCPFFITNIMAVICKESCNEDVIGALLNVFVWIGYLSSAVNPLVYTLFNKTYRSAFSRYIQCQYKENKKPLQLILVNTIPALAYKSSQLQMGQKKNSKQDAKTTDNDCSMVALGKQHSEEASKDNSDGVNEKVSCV
Chain of 5-hydroxytryptamine receptor 5A (Homo sapiens) (P47898 whole entry): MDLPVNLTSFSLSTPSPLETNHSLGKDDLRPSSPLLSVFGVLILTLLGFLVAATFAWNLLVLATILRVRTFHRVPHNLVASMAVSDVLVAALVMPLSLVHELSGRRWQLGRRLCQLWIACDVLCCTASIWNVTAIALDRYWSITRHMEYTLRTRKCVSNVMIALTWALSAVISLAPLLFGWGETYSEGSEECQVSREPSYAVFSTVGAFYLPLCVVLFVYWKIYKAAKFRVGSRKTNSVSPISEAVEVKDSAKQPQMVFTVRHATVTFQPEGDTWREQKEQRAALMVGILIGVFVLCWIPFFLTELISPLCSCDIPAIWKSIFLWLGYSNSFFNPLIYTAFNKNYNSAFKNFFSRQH
Chain of Sodium-dependent noradrenaline transporter (Homo sapiens) (P23975 whole entry): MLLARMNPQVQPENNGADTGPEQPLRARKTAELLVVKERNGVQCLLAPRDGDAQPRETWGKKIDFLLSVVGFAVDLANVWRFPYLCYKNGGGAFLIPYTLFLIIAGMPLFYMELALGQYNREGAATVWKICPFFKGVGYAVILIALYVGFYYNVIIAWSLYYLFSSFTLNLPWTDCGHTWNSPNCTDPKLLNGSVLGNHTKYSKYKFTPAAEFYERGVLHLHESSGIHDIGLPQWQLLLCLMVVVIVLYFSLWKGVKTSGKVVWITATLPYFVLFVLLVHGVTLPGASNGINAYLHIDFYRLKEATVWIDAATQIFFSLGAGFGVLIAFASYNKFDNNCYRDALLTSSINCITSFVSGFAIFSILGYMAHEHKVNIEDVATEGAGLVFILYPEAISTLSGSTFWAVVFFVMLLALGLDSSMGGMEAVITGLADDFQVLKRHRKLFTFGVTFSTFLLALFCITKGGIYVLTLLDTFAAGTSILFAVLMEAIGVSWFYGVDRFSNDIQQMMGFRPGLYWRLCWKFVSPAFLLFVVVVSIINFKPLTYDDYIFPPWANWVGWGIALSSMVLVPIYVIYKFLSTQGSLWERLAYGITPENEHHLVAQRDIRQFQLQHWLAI
Chain of D(1B) dopamine receptor (Homo sapiens) (P21918 whole entry): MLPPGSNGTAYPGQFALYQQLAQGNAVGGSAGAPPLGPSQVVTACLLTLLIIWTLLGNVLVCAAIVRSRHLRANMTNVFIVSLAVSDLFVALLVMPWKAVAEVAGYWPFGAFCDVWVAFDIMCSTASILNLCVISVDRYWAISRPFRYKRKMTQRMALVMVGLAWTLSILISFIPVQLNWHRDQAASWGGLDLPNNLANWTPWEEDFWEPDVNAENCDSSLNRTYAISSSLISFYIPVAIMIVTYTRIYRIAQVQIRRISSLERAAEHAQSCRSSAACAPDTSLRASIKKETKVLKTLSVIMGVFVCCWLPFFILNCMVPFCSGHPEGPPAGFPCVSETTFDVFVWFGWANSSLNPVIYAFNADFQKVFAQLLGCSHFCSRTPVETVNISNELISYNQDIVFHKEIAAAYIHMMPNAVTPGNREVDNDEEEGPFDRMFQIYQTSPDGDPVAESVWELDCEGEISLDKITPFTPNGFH
Chain of Ribosomal protein S6 kinase alpha-5 (Homo sapiens) (O75582 whole entry, looked up): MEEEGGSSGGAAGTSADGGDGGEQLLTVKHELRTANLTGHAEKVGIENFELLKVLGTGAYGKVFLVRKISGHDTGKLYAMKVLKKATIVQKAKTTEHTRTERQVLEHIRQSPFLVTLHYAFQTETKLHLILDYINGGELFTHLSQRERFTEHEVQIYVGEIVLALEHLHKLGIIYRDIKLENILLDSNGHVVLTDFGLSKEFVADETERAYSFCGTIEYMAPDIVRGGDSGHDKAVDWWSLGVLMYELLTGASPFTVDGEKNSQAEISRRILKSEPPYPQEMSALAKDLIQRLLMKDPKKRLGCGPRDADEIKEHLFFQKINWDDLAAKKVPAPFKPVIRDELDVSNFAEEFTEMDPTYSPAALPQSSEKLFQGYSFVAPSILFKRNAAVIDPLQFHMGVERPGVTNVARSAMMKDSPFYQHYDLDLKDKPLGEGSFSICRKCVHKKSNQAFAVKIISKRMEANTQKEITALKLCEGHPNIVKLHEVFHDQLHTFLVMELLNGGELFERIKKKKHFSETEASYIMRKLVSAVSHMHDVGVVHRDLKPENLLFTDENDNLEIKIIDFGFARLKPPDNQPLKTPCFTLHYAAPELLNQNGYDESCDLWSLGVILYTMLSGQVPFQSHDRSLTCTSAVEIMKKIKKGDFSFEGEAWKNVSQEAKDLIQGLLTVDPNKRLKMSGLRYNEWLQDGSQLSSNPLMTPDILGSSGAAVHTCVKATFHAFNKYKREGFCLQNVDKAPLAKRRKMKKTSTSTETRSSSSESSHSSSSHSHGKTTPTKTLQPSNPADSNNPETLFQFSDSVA
Chain of Serine/threonine-protein kinase Chk2 (O96017 whole entry): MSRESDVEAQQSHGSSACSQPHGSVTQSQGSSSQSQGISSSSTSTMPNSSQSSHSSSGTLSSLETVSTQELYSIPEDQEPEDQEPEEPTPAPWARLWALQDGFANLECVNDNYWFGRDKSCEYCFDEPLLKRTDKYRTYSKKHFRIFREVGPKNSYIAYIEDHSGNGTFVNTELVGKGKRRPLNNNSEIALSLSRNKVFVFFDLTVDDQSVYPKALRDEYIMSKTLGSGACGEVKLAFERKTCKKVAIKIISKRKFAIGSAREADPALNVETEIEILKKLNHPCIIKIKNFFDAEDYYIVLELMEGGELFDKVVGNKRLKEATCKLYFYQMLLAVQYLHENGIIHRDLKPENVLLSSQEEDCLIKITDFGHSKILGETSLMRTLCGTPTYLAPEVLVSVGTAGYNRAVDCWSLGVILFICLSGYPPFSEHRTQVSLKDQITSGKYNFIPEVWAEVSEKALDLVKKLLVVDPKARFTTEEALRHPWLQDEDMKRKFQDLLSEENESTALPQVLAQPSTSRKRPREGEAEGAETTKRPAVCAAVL
Chain of D(3) dopamine receptor (Homo sapiens) (P35462 whole entry): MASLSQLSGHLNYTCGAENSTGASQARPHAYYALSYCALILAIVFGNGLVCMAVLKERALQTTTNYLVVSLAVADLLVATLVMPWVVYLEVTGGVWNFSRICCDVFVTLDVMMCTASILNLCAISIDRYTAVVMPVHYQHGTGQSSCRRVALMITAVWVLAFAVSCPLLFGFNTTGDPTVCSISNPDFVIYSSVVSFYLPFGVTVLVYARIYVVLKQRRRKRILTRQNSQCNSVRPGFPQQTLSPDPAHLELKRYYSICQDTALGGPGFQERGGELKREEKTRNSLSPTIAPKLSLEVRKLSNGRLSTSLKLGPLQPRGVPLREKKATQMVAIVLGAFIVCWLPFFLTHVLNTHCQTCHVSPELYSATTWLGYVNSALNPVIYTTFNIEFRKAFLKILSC

What does the source list for `CS(=O)(=O)N1CCCC(NC(=O)[C@H](CCC2CCCCC2)NC(=O)c2ccc(CNc3ncnc4c3nnn4-c3ccccc3)cc2)C1` (stereo partly specified) [SR-301]?
IC50 [1]: 1.63 µM (not active); residual activity [2]: 100%; residual activity [3]: 100%; residual activity [4]: 95%

Which results are given for `CS(=O)(=O)N1CCCC(NC(=O)[C@H](CCC2CCCCC2)NC(=O)c2ccc(CNC(=O)c3cnc4ccccn34)cc2)C1` (stereo partly specified) [SR-302]?
IC50 [5]: > 25 µM; inhibition [6]: 3.03%; inhibition [7]: 12.2%; inhibition [8]: 3.1%; inhibition [9]: -8.61%; inhibition [10]: 7.14%; inhibition [11]: 2.38%; inhibition [12]: 3.78%; inhibition [13]: 23.5%; inhibition [14]: 3%; inhibition [15]: 0.32%; inhibition [16]: 32%
